This is an account of results in patent publication US20100311841A1, “SYNTHETIC SPHINGOLIPID ANALOGS” (priority 2007, published 2010).

The test system of the assay is TSU-PR1 cells. In words: TSU-PR1 tumor xenograft in whole-body-irradiated BALB/NUDE mice. It is filed as in vivo. Particulars: BALB/NUDE mice irradiated with 400 cGy, s.c. TSU-PR1 tumors; AD-2813 20 mg/kg in cremophor s.c. daily close to tumor; after about 10 days of treatment; compared to control and cremophor groups (FIG. 1). Here is the method:
BALB/NUDE mice were whole body irradiated with 400 cGy, 10 days later they were injected s.c. with 3.5*10e6 TSU-PR1 cells/mouse which are commonly considered as prostate carcinoma cells but recently are also considered by some as bladder carcinoma cells. Eight days later, tumors were formed, and mice were separated into 3 groups: Group 1: a control without any injection. Group 2: were injected s.c. with vehicle (cremophor) Group 3: were treated s.c. daily with AD-2813 (20 mg/kg in cremophor) close to tumor. […] The drastic change in tumor volume is pronounced particularly when compared to the control and treatment with cremophor groups.

As for `CCCCCCCCCCCCCCNC(CO)C(O)c1ccc(SC)cc1.Cl` (stereo not shown) [AD-2813], the tumor volume result was “significant decrease in tumor volume”.
